Data from PMC7321210, “Synthesis and Studies of the Inhibitory Effect of Hydroxylated Phenylpropanoids and Biphenols Derivatives on Tyrosinase and Laccase Enzymes” (Molecules, 2020).
Entries after “also recorded” stand apart in the source; their conditions may differ. Like-named read-outs stand apart in the source and are kept apart here.

Legend:
mushroom tyrosinase = assay: Spectrophotometric (UV-Vis) detection of tyrosinase inhibitory activity; type: biochemical; conditions: for tyrosinase inhibition in words, tyrosine versus dopamine as substrate: UV-Vis, absorbance at 311 or 472 nm, Figure 3
Protocol: Kinetic assays were carried out by measuring the appearance of the product of either tyrosine or dopamine oxidation in the reaction medium at 311 and 472 nm, respectively, in a Shimadzu UV-2501 spectrophotometer (Shimadzu, Kyoto, Japan) equipped with the UV-Probe software, using a tandem quartz cuvette (Hellma, Milan, Italy) with a 2 × 4.375-mm path length [1, 2, 51]. Briefly, one side of the dual chamber cuvette was filled with 1000 µl of mushroom tyrosinase solution in 50 mM phosphate buffer, pH 6.8, 166 Units/mL using tyrosine as substrate or a 16.6 Units/mL when dopamine was used as substrate. The other chamber was loaded with 980 µL of substrate solution (180 µM tyrosine or 18 µM dopamine) in 20 mM phosphate buffer (pH 6.8) added of either 20 µL of DMSO (control) or 20 µL of a 2 mM (0.2 mM in dopamine experiments) solution of tested inhibitors in DMSO. A background spectrum in the 250–700 nm range was acquired with a 2.0 nm slit and fast speed before starting the reaction. Thereafter, the solutions in the two chambers were mixed by inversion and the UV-Vis spectra were acquired at increasing time intervals. Spectra were recorded at 311 or 472 nm in the presence of the inhibitor before mixing, and after either 24 or 10 min, using tyrosine or dopamine as a substrate, respectively. Data processing was performed with UV Probe and OriginPro 2019 (v. 9.60) softwares.
The mushroom tyrosinase was used as purchased without further purification. All solutions (tyrosinase, substrates and inhibitors) were filtered through a 0.45-μm syringe filter, aliquoted in Eppendorf tubes, and stored in freezer. The relative concentration was determined spectrophotometrically (εtyrosine 274.6 nm = 1420 M^−1·cm^−1; εdopamine at 280 nm = 2670 M^−1·cm^−1; εtyrosinase at 280 nm = 1426 M^−1·cm^−1).
Tyrosine was dissolved in 50 mM phosphate buffer, pH 6.8, final concentration 80 µM and with the added inhibitor (final concentration 20 µM) and tyrosinase (83 U/mL). The absorbance values were determined after 24 min of incubation. In the presence of dopamine, experiments were performed using 10-fold diluted solutions, and the absorbance values were determined after 10 min of incubation.

tyrosinase [1] = biological target: T1, tyrosinase (Agaricus bisporus, UniProt C7FF04); assay: Tyrosinase amperometric biosensor: IC50 and type of inhibition; type: biochemical; conditions: for Type of Inhibition Tyrosinase: Lineweaver-Burk plot, biosensor exposed 30 min to twice the lowest inhibiting concentration; for VMAX, substrate + inhibitor, TYR: dopamine calibration 0-140 mM after inhibitor exposure, n=4 biosensors;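 on all read-outs here: Carbon-composite amperometric tyrosinase biosensors with polyurethane-entrapped enzyme, calibrated in a three-electrode cell against Ag/AgCl at room temperature, before versus after inhibitor exposure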
T1 sequence (C7FF04 2-392): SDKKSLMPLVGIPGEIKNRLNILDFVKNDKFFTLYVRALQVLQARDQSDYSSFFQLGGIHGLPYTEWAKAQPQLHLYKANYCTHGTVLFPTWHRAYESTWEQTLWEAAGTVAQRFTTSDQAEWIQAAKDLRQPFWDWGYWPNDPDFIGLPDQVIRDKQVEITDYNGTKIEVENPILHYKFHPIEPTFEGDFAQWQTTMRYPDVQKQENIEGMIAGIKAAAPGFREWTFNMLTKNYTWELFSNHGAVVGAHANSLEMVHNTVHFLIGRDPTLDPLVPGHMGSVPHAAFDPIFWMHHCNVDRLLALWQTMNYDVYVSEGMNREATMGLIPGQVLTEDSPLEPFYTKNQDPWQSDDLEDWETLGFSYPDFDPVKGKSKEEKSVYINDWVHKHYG
Protocol: (§1) Inhibition types and IC50 were assessed by means of carbon-based amperometric biosensors [61, 62, 63, 64, 65], that are described in the Supplementary Materials. During the experiments carried out to determine the IC50 values, the lowest inhibitory concentration of each compound was also evaluated.
(§2) To verify the inhibition types, the following protocol was used. An initial calibration with dopamine, ranging between 0 and 140 mM, was performed in order to ascertain the values of VMAX and KM. Another calibration with the same protocol was performed after having exposed the biosensors to twice the lowest inhibiting concentration of each inhibitor, in order to ensure the safe inhibition of enzymatic activity. The biosensors were exposed to the inhibitor for 30 min and after having reached a stabile baseline, a calibration with dopamine, ranging between 0 and 140 mM, was performed and the value of VMAX and KM were calculated. The variations of both VMAX and KM were then analyzed by using the Lineweaver-Burk plot in order to identify the type of inhibition induced by the tested compound. The statistical difference in VMAX and KM, before exposing the biosensors to the inhibitor and then afterwards, was calculated by means of a paired t-test (p < 0.05).
(§3) The biosensors were prepared starting from a Teflon™-insulated silver wire (30 mm in length; Ø = 125 μm),
(§4) Briefly, 1 mm of the silver wire was exposed and then introduced into a silica
(§5) capillary cylinder (10 mm in length; I.D. Ø = 180 μm, Polymicro Technologies, Phoenix, AZ, USA) partly
(§6) packed with graphite-loaded (55% w/w) epoxy resin. By mixing 850 mg of graphite with 500 mg of Araldite-
(§7) M and 200 mg of hardener, a preliminary disc electrode of carbon-composite was fabricated (Ø = 180 μm; area:
(§8) 2.5 × 10−4 cm2) by filling the silica capillary tubing with the mixture. The silver wire assured a good electrical
(§9) contact. After 24 h at 40 °C, the electrode surface was cleaned using a high-speed drill (Dremel® 300) equipped
(§10) with an aluminum oxide grinding wheel. On top of the electrode surface a 1 µl of Tyrosinase or Laccase
(§11) solution was deposited. After the complete evaporation of water at room temperature, the biosensor was
(§12) quickly dipped in the polyurethane solution in order to entrap the enzyme on the electrode surface, and after
(§13) the complete evaporation of the solvent biosensors were put to stabilize in PBS pH=6.0 overnight.
(§14) The electrochemical measurements were performed at room temperature in a classical three-electrode
(§15) electrochemical cell consisting of four biosensors as working electrodes, a reference electrode (Ag/AgCl in
(§16) Constant potential amperometry (CPA) was used for in-vitro calibrations and for inhibition evaluation
(§17) experiments by applying a constant potential of -50 mV against an Ag/AgCl reference electrode, by means of
(§18) a four-channel potentiostat (eDAQ Quadstat, e- Corder 410, eDAQ Europe, Poland) and the software Chart (v
(§19) 5.5, eDAQ Europe, Poland). Thus, once the stabilization of the baseline of biosensors was reached, increasing
(§20) volumes of a stock solution of dopamine 1 M were added in order to obtain different concentrations ranging

laccase = assay: Laccase amperometric biosensor: IC50 and type of inhibition; type: biochemical; conditions: for Type of Inhibition Laccase: Lineweaver-Burk plot, biosensor exposed 30 min to twice the lowest inhibiting concentration; for VMAX, substrate + inhibitor, LAC: dopamine calibration 0-140 mM after inhibitor exposure, n=4 biosensors; for IC50: enzyme immobilized on biosensor, dopamine 50 µM, PBS pH 6.0
Protocol: as §1, §2, §3, §4, §5, §6, §7, §8, §9, §10, §11, §12, §13, §14, §15, §16, §17, §18, §19, §20

Tenebrio molitor = assay: Insecticidal properties on mealworm larvae; type: in vivo; conditions: for pest or weed control at 6400 µg/mL: Tenebrio molitor, topical, 120 h, read-out: Mortality% (Mean ± SD)
Protocol: Late instar larvae of Tenebrio molitor from a twenty-year-old insect culture at the Research Institute on Terrestrial Ecosystems (National Research Council, Sassari, Italy) were used in the experiments. The species was reared on bran flour, with the integration of fresh vegetables, at 25 °C, 65% relative humidity and 16:8 hours light/darkness.
One hundred medium instar larvae were isolated in a petri dishes (diam. 50 mm). They were then immersed for three seconds in 2.5 mL of an acetone solution (concentration 6.4 mg/mL w:v) of one of the fourteen compounds listed in Table 3. In addition, a treatment with the commercial formulation Dimilin (WP, 25% a.i. diflubenzuron) (acetone solution, 25.6 mg/mL w:v) and a negative control (no treatment) were tested.
After treatment, the larvae were subdivided into five 20-specimen groups and reared for five days in a small PVC box (150 L × 120 W × 50 H mm) with the same feed and conditions as standard rearing. Mortality was recorded daily.
The statistical analysis was conducted with the R software (R Development Core Team 2016). Mortality data, expressed as a percentage, were arcsin(√x)-transformed to satisfy assumptions of normality. ANOVA was performed by the Duncan test for mean separation.

PC12 cells [2] = assay: Viability of PC12 cells (MTT assay); type: cell-based, rat; conditions: for Toxic Concentration: cell viability < 80%, screening from 1 to 40 μM, 24 h; for toxicity to cells in words: significant (p < 0.05) decrease in viability vs control, from 5 μM up to 40 μM
Protocol: Initially, the inhibitor concentrations on PC12 cells, i.e., a rat pheochromocytoma-derived cell line, were screened to assess the possible cytotoxicity of the molecules under study [55].
(§21) 1.4 Viability and oxidative stress assays
(§22) PC12 cells, rat pheochromocytoma-derived cell line (ATCCCRL-1721) (passages 12–25) were maintained at 37
(§23) °C humidified air containing 5% CO2/95% atmospheric air and cultured in a 60 mm plastic culture plates with
(§24) Dulbecco’s modified Eagle’s medium supplemented with 10% horse serum, 5% fetal bovine serum and 1% of
(§25) penicillin/streptomycin. PC12 cells were treated for 24 h with the different compounds at different
concentrations ranging from 1 to 40 μM, to evaluate their eventual toxicity.
(§26) For all treatments cell viability was measured by means of MTT assay, as explained in
the following paragraph [17].
(§27) At the end of the exposure time of each experiment, the cell viability was assessed by means of MTT (3-(4,5-
(§28) dimethyl-thiazol-2-yl)-2,5-diphenyltetrazoliumbromide) assay. For this purpose, 1 mg/mL of MTT was added
(§29) to each sample and incubated for 4 h at 37 °C. Only viable cells are able to convert the soluble dye MTT into
(§30) the insoluble formazan crystals. After the incubation the MTT supernatant solution was removed, the cells
(§31) were washed in phosphate-buffered saline (PBS) and centrifuged while the pellet was dissolved in 2 mL of
(§32) isopropanol. After centrifugation of the solution at 4,000 rpm for 5 min, the absorbance for each sample was
(§33) assessed by means of a Bauty Diagnostic Microplate Reader at 578 nm. All experiments were performed in 24-
(§34) well plates (1 × 10^5 cells/mL/well) and repeated in triplicate.

PC12 cells [3] = assay: Protection of PC12 cells against H2O2-induced oxidative stress (MTT); type: cell-based, rat; conditions: for change of cell viability versus H2O2 alone, in words: co-treatment with 100 μM H2O2, compounds 1 up to 20 μM; for H2O2 Damage Protection: concentration with significant increase in viability vs H2O2, co-treatment with 100 μM H2O2, n.p.: no protection
Protocol: as §21, §22, §23, §24, §25
concentrations ranging from 1 to 40 μM, to evaluate their eventual toxicity. Then, in order to assess the
eventual compounds’ protection properties, PC12 cell treated with hydrogen peroxide (100μM) in association
with increasing concentration of the above-mentioned molecules, from 1 up to 20 μM.
as §26, §27, §28, §29, §30, §31, §32, §33, §34

tyrosinase [4] = biological target: T1, tyrosinase; conditions: cited from earlier work; for tyrosinase inhibitory activity compared with biphenol 1: spectrophotometric and electrochemical assays
[5] = larvae immersed three seconds in 2.5 mL acetone solution 6.4 mg/mL, reared five days, DFB as Dimilin WP 25% a.i., 25.6 mg/mL

Row | VMAX, substrate + inhibitor, TYR (tyrosinase [1]) [nA] | Type of Inhibition Laccase (laccase) | VMAX, substrate + inhibitor, LAC (laccase) [nA] | IC50 (laccase) [nM] | SMILES | tyrosinase inhibition in words, tyrosine versus dopamine as substrate (mushroom tyrosinase) | Type of Inhibition Tyrosinase (tyrosinase [1]) | pest or weed control at 6400 µg/mL (Tenebrio molitor; [5]) [%] | Toxic Concentration (PC12 cells [2]) | further results
1 | 48.8±4.67 | mixed | 110.9±2.4 | – | COc1cc(/C=C/C(=O)c2cc(OC)c(OC)c(-c3cc(C(=O)/C=C/c4ccc(O)c(OC)c4)cc(OC)c3OC)c2)ccc1O [Compound 14] | predominant inhibition of tyrosine oxidation | mixed | 0 | >5 µM | toxicity to cells in words (PC12 cells [2]): toxic to cells
2 | 37.3 ±4.0 | competitive | 114.4±9.5 | – | COc1cc(/C=C/C(=O)C[C@@H]2O[C@H](CO)[C@@H](O)[C@H](O)[C@H]2O)ccc1O [Compound 13] | predominant inhibition of tyrosine oxidation | uncompetitive or mixed; also recorded: uncompetitive | – | >20 µM | change of cell viability versus H2O2 alone, in words (PC12 cells [3]): significant decrease (p < 0.05 vs H2O2) at a concentration of 20 μM; H2O2 Damage Protection (PC12 cells [3]): n.p.
3 | 63.0±1.962 | competitive | 49.5±6.1 | 1040 | COc1cc(C(=O)/C=C/c2ccc(OC)c(OC)c2)ccc1O [Compound 12] | predominant inhibition of tyrosine oxidation | noncompetitive | 0 | >1 µM | toxicity to cells in words (PC12 cells [2]): toxic to cells
4 | 73.7±26 | competitive | 96.5±8.3 | 184 | CCOC(=O)/C=C/c1cc(OC)c(O)c(-c2cc(/C=C/C(=O)OCC)cc(OC)c2O)c1 [Compound 17] | strongly inhibited the oxidation of dopamine compared to that of tyrosine; also recorded: selectivity towards the diphenolasic phase | uncompetitive or mixed; also recorded: mixed | – | none | H2O2 Damage Protection (PC12 cells [3]): n.p.
5 | 123.5±9.8 | competitive | 111.4±8.9 | 130 | OC[C@H]1O[C@@H](Oc2ccc(-c3ccc(O)c(Br)c3)cc2Br)[C@H](O)[C@@H](O)[C@@H]1O [Compound 19, (2S,3R,4S,5S,6R)-2-((3,3’-dibromo-4’-hydroxy-[1,1’-biphenyl]-4-yl)oxy)-6-(hydroxymethyl)tetrahydro-2H-pyran-3,4,5-triol] | predominant inhibition of tyrosine oxidation | noncompetitive | – | none | change of cell viability versus H2O2 alone, in words (PC12 cells [3]): significant decrease (p < 0.05 vs H2O2) in cells viability at all concentrations tested; H2O2 Damage Protection (PC12 cells [3]): n.p.; melting point: 176 to 178 °C

The next lines start with the compound.

Row | SMILES | VMAX, substrate + inhibitor, TYR (tyrosinase [1]) [nA] | Type of Inhibition Laccase (laccase) | VMAX, substrate + inhibitor, LAC (laccase) [nA] | IC50 (laccase) [nM] | tyrosinase inhibition in words, tyrosine versus dopamine as substrate (mushroom tyrosinase) | Type of Inhibition Tyrosinase (tyrosinase [1]) | pest or weed control at 6400 µg/mL (Tenebrio molitor; [5]) [%] | Toxic Concentration (PC12 cells [2]) | further results
6 | CC(C)=CCCC(C)(O)/C=C/c1cc(-c2ccc(O)c(/C=C/C(C)(O)CCC=C(C)C)c2)ccc1O (centres unmarked) [Compound 20, 3,3’-bis((E)-3-hydroxy-3,7-dimethylocta-1,6-dien-1-yl)-[1,1’-biphenyl]-4,4’-diol] | 77.4±4.3 | competitively; also recorded: competitive | 151.6±12.1 | 118 | strongly inhibited the oxidation of dopamine compared to that of tyrosine; also recorded: selectivity towards the diphenolasic phase | competitively; also recorded: competitive | ~65 | – | insecticidal activity in words (Tenebrio molitor; mealworm larvae, compared with DFB): some insecticidal activity
7 | CC(=O)CCc1ccc(O)c(O)c1 [Compound 9] | 183.2±11.1 | competitively; also recorded: competitive | 90.5±7.4 | 2240 | strongly inhibited the oxidation of dopamine compared to that of tyrosine; also recorded: selectivity towards the diphenolasic phase | competitively; also recorded: competitive | 4 ± 6.51 | >10 µM | change of cell viability versus H2O2 alone, in words (PC12 cells [3]): significant decrease (p < 0.05 vs H2O2) at a concentration of 20 μM; H2O2 Damage Protection (PC12 cells [3]): n.p.
8 | C=CCc1cc(-c2ccc(O)c(CC=C)c2)ccc1O [Compound 3] | – | – | – | – | – | – | 3 ± 2.74 | – | tyrosinase inhibitory activity compared with biphenol 1 (tyrosinase [4]): higher tyrosinase inhibitory activity than that of biphenol 1
9 | Oc1ccc(-c2ccc(O)c(O)c2)cc1O [Compound 2] | – | – | – | – | – | – | 4 ± 5.48 | – | tyrosinase inhibitory activity compared with biphenol 1 (tyrosinase [4]): higher tyrosinase inhibitory activity than that of biphenol 1
10 | COc1cc(C=CC(C)=O)ccc1O [Compound 8] | – | – | 78.7±8.8 | 218 | strongly inhibited the oxidation of dopamine compared to that of tyrosine; also recorded: selectivity towards the diphenolasic phase | – | 10 ± 7.07 | 40 µM | change of cell viability versus H2O2 alone, in words (PC12 cells [3]): significant decrease (p < 0.05 vs H2O2) in cells viability at all concentrations tested; H2O2 Damage Protection (PC12 cells [3]): n.p.
11 | Oc1cccc(O)c1-c1c(O)cccc1O [Compound 5] | – | – | – | – | – | – | 16 ± 9.62 | – | tyrosinase inhibitory activity compared with biphenol 1 (tyrosinase [4]): higher tyrosinase inhibitory activity than that of biphenol 1
12 | Oc1ccccc1-c1ccccc1O [Compound 4] | – | – | – | – | – | – | – | – | pest or weed control at 6400 µg/mL (Tenebrio molitor): 3 ± 4.47%
13 | Oc1ccc(-c2ccc(O)cc2)cc1 [Compound 1, 4,4′-dihydroxy-biphenyl, reference compound] | – | – | – | – | predominant inhibition of tyrosine oxidation | – | 2 ± 2.74 | – | type of tyrosinase inhibition (tyrosinase [4]): classical reversible competitive inhibitor
14 | COc1cc(O)cc(-c2cc(O)cc(OC)c2OC)c1OC [Compound 6] | – | – | – | – | – | – | 1 ± 2.24 | – | tyrosinase inhibitory activity compared with biphenol 1 (tyrosinase [4]): higher tyrosinase inhibitory activity than that of biphenol 1
15 | COc1cc(/C=C/C(=O)c2ccc(OC)c(OC)c2)ccc1O [Compound 11] | 33.0±1.1 | mixed | 91.0±9.2 | 62 | predominant inhibition of tyrosine oxidation | competitive | 4 ± 2.24 | >10 µM | toxicity to cells in words (PC12 cells [2]): toxic to cells
16 | O=C(NC(=O)c1c(F)cccc1F)Nc1ccc(Cl)cc1 [DFB, N-[(4-chlorophenyl)carbamoyl]-2,6-difluorobenzamide, reference compound] | – | – | – | – | – | – | – | – | pest or weed control at 6400 µg/mL (Tenebrio molitor): 97 ± 4.47%
17 | COc1cc(C(=O)/C=C/c2cc(OC)c(OC)c(-c3cc(/C=C/C(=O)c4ccc(O)c(OC)c4)cc(OC)c3OC)c2)ccc1O [Compound 15] | 54.3±2.6 | competitively; also recorded: competitive | 93.8±2.9 | 209 | predominant inhibition of tyrosine oxidation | competitively; also recorded: competitive | 0 | >5 µM | toxicity to cells in words (PC12 cells [2]): toxic to cells
18 | COc1ccc(O)c(C(=O)/C=C/c2cc(OC)c(OC)c(-c3cc(/C=C/C(=O)c4cc(OC)ccc4O)cc(OC)c3OC)c2)c1 [Compound 16] | 22.2±0.6 | competitively; also recorded: competitive | 139.9±6.4 | 987 | – | competitively; also recorded: competitive | – | >5 µM | % inhibition of tyrosinase (mushroom tyrosinase; comparable with both substrates, tyrosine 80 µM, inhibitor 20 µM, 24 min, dopamine 10-fold diluted solutions, 10 min): about 70%; toxicity to cells in words (PC12 cells [2]): toxic to cells
